The source made the active and inactive calls. No cut-off for these calls is given here.
Target: T1, Sterol O-acyltransferase 1 (Homo sapiens) (UniProt P35610)
T1 sequence (whole entry): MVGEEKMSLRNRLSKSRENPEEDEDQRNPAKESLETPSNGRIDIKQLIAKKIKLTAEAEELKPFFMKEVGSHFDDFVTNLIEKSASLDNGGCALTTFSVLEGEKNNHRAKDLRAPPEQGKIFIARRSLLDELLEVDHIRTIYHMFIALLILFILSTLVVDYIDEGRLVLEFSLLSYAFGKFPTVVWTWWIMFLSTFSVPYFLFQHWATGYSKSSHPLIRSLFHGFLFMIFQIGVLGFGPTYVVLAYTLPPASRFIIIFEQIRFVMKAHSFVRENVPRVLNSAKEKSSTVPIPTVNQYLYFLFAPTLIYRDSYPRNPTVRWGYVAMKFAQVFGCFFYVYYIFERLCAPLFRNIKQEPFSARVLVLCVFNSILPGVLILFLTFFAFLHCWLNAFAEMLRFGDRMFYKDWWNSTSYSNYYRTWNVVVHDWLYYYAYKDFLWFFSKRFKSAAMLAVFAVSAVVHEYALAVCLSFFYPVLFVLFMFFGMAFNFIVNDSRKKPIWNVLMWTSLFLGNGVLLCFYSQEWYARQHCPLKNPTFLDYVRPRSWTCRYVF
Assay: Inhibition of ACAT at 10 ug/ml

Q: Which inhibition does the source give for `COc1cc2oc3c(S(=O)(=O)N4CCN(c5ccccn5)CC4)c(OC)cc(OC)c3c(=O)c2cc1OC` here?
A: 43.6%

Q: With `CCOC(=O)C1CCCN(S(=O)(=O)c2c(OC)cc(OC)c3c(=O)c4cc(OC)c(OC)cc4oc23)C1` (centres undefined) as the compound, how does the inhibition read?
A: 7.99%

Q: `COc1cc2oc3c(S(=O)(=O)NCCc4ccc(C)c(C)c4)c(OC)cc(OC)c3c(=O)c2cc1OC` was tested. Which inhibition did it give?
A: 11.9%

Q: `COc1ccc(N2CCN(S(=O)(=O)c3c(OC)cc(OC)c4c(=O)c5cc(OC)c(OC)cc5oc34)CC2)cc1` was tested. Which inhibition did it give?
A: 36.9%

Q: Which inhibition does the source give for `CCCCCCCCCC[Si](C)(C)CCC(=O)NC(Cc1ccc(C)cc1)c1ccccc1` (centres undefined) here?
A: 55%

Q: `CCOC(=O)CN(C)S(=O)(=O)c1c(OC)cc(OC)c2c(=O)c3cc(OC)c(OC)cc3oc12` was tested. Which inhibition did it give?
A: 16.8%

Q: Which inhibition does the source give for `COc1cc2oc3c(S(=O)(=O)NC4CC4)c(OC)cc(OC)c3c(=O)c2cc1OC` here?
A: inactive

Q: With `COc1cc2oc3c(S(=O)(=O)NCC(C)c4ccccc4)c(OC)cc(OC)c3c(=O)c2cc1OC` (centres undefined) as the compound, how does the inhibition read?
A: 10.8%

Q: Which inhibition does the source give for `COc1cc2oc3c(S(=O)(=O)NCc4cccc(Cl)c4)c(OC)cc(OC)c3c(=O)c2cc1OC` here?
A: 15.8%

Q: With `COc1cc2oc3c(S(=O)(=O)N4CC=C(c5ccccc5)CC4)c(OC)cc(OC)c3c(=O)c2cc1OC` as the compound, how does the inhibition read?
A: 51.3%

Q: `COc1cc2oc3c(S(=O)(=O)N4CCN(c5cccc(C)c5)CC4)c(OC)cc(OC)c3c(=O)c2cc1OC` was tested. Which inhibition did it give?
A: 64.8%

Q: For `CCCNS(=O)(=O)c1c(OC)cc(OC)c2c(=O)c3cc(OC)c(OC)cc3oc12`, which inhibition is on record?
A: inactive

Q: Which inhibition does the source give for `COc1ccc(CCCN(C)S(=O)(=O)c2c(OC)cc(OC)c3c(=O)c4cc(OC)c(OC)cc4oc23)cc1OC` here?
A: 30.1%

Q: How did the inhibition turn out when `CNS(=O)(=O)c1c(OC)cc(OC)c2c(=O)c3cc(OC)c(OC)cc3oc12` was run?
A: inactive

Q: Which inhibition does the source give for `COc1cc2oc3c(S(=O)(=O)N4CCC(N(C)C)C4)c(OC)cc(OC)c3c(=O)c2cc1OC` (centres undefined) here?
A: 21%

Q: How did the inhibition turn out when `COC(=O)CNS(=O)(=O)c1c(OC)cc(OC)c2c(=O)c3cc(OC)c(OC)cc3oc12` was run?
A: 5.13%

Q: `COc1cc2oc3c(S(=O)(=O)N4CCCCC4)c(OC)cc(OC)c3c(=O)c2cc1OC` was tested. Which inhibition did it give?
A: 10.5%

Q: How did the inhibition turn out when `COc1cc2oc3c(S(=O)(=O)NCc4ccc(F)cc4)c(OC)cc(OC)c3c(=O)c2cc1OC` was run?
A: 10.2%

Q: `COc1cc2oc3c(S(=O)(=O)N4C[C@@H](C)O[C@@H](C)C4)c(OC)cc(OC)c3c(=O)c2cc1OC` was tested. Which inhibition did it give?
A: 8.84%

Q: With `COc1cc2oc3c(S(=O)(=O)NOCc4ccccc4)c(OC)cc(OC)c3c(=O)c2cc1OC` as the compound, how does the inhibition read?
A: 16.8%

Q: For `COc1cc2oc3c(S(=O)(=O)NC(c4ccccc4)c4ccccc4)c(OC)cc(OC)c3c(=O)c2cc1OC`, which inhibition is on record?
A: inactive

Q: How did the inhibition turn out when `COc1cc2oc3c(S(=O)(=O)N4CCN(C)CC4)c(OC)cc(OC)c3c(=O)c2cc1OC` was run?
A: 14.5%

Q: With `CCN(CC)C(=O)C1CCCN(S(=O)(=O)c2c(OC)cc(OC)c3c(=O)c4cc(OC)c(OC)cc4oc23)C1` (centres undefined) as the compound, how does the inhibition read?
A: 12.6%

Q: How did the inhibition turn out when `COc1cc2oc3c(S(=O)(=O)NCc4ccc5ccccc5c4)c(OC)cc(OC)c3c(=O)c2cc1OC` was run?
A: 25%

From ChEMBL document CHEMBL1157123, “First identification of xanthone sulfonamides as potent acyl-CoA:cholesterol acyltransferase (ACAT) inhibitors” (Bioorg Med Chem Lett, 2010)
